# Measurements published in patent US20260207777A1, “IMPROVED PEPTIDE INHIBITORS OF P53 BINDING PROTEIN 53BP1” (KAMAU THERAPEUTICS, INC., priority 2022, published 2026).
# Legend:
# CD34+ HSPCs [1] = experiment: editing of CD34+ HSPCs with purified i53 variant proteins and HBB-UBC-GFP AAV donor; flow cytometry; type: cell-based, human; conditions: for increase in levels of GFP integration over control edited cells: HBB-UBC-GFP AAV MOI 2500
# Experimental: (§1) Chemically-modified single guide RNAs (sgRNAs) used to edit CD34+ HSPCs at the HBB locus were purchased from Synthego. The sgRNA sequences were modified by adding 2′-O-methyl-3′-phosphorothioate at the three terminal nucleotides of the 5′ and 3′ ends. The target sequence for the HBB sgRNA is as follows: HBB: 5′[…]-3′ (SEQ ID NO: 74). Cas9 protein (SpyFi Cas9) was purchased from Aldevron. The RNPs were complexed at a Cas9:sgRNA molar ratio of 1:2.5 at 25° C. for 10-15 min prior to electroporation. Cells were collected, counted, and pelleted at 180 g×7 min. The cell pellets were resuspended in Maxcyte buffer with complexed RNPs and electroporated using a Maxcyte EXPERT ATx Nucleofector. After electroporation cells were plated at 3.5×10^5 cells/mL in media supplemented with cytokines and the desired AAV donor added at 5.0×10^2-2.5×10^4 vector genomes/cell. 24 h after nucleofection, cells were spun down, washed once with media, and seeded into AAV-free media at a density of 3.5×10^5 cells/mL.
# (§2) CD34+ HPSCs were edited with protein variants 3 days post thaw and were harvested 2 days post nucleofection for NGS analysis or 3-5 days post nucleofection for GFP expression analysis. Editing reactions with proteins at a given concentration were repeated in duplicate or triplicate (either using the same CD34+ HSPC donor or across multiple donors).
# Rates of targeted integration of the HBB UBC GFP donor were measured using a Beckman Coulter CytoFLEX. DAPI (Miltenyi Biotec) was used to discriminate live and dead cells. Flow cytometry data were analyzed using FlowJo 10 software.
# CD34+ HSPCs [2] = experiment: editing of CD34+ HSPCs with purified i53 variant proteins and HBB-SNP AAV donor; NGS of editing outcomes; type: cell-based, human; conditions: for increase in levels of HDR corrected alleles over control edited cells: FIG. 13; for increase in levels of HDR corrected alleles over DM: L67R/L67H value is the average of both
# Experimental: as §1, §2
# 24 h after nucleofection, cells were spun down, washed with media, and seeded into AAV and DNAPKi-free media at a density of 3.5×10^5 cells/mL.
# The frequency of homology directed repair (HDR) and other editing outcomes at HBB were measured using Next Generation Sequencing (NGS). An NGS assay was developed to determine the frequency of at the HBB locus by quantifying the total number of alleles that have been either: (1) not edited (% WT), (2) changed by HDR to incorporate sequence differences present in the AAV repair template (% HR), or (3) mutated during the genome correction process resulting in a gene that produces mutant β-globin (% INDELs).
# For this assay, genomic DNA was harvested from cells using a Quick-DNA 96 Plus Kit (Zymo Research). The DNA concentration was measured using a Qubit 1×dsDNA BR assay kit (ThermoFisher). Purified genomic DNA was then used to amplify the HBB locus via polymerase chain reaction (PCR). The PCR products were diluted using nuclease-free water to serve as the template DNA for targeted NGS library prep. A second PCR with primers carrying partial Illumina adapters was performed to amplify a 142 base pair sequence that includes the region of the HBB locus that is to be corrected during the genome correction process. The PCR products were diluted again to serve as templates in a third PCR reaction using Nextera XT index primers. This third PCR reaction was used to assign unique identifiers to each sample and to add the full length adapter sequences necessary for Illumina sequencing. The size of the PCR products was assessed on an Agilent BioAnalyzer. PCR products were then pooled, purified using a Qiagen PCR purification kit, and quantified using PicoGreen in order to ready the PCR products for sequencing.
# Based on the PicoGreen concentration, the library of pooled PCR products was diluted to a final concentration of 4 nM. Sequencing was performed on a MiSeq system using an Illumina MiSeq sequencing reagent kit (V2, 300 cycles). A 10% PhiX control library was added to the sample library to improve sequence diversity and to allow for error rate measurements. The library was denatured and loaded at […] onto the sequencing reagent cartridge. The sequencing entails paired-end 150 base pair reads and dual indexing reads. The sequencing data was demultiplexed based on the sample indexes provided and FASTQ files for each sample are generated.
# The FASTQ files were processed using the CRISPResso2 pipeline^3. The data was reported as % WT, % corrected by HR, and % INDELs. […]
# CD34+ HSPCs [3] = experiment: editing at the off-target editing site OT-1 (NGS-based analysis); type: cell-based, human; conditions: protein 0.8 mg/mL
# Source text: Editing outcomes at the off-target (OT) editing site OT-1 can be assessed using an assay very similar to the one described above for measuring the targeted integration of HBB-SNP. The off-target editing site was identified via three different methods (in silico prediction,^13 Circle-Seq,^14 and Guide-Seq^15) and was confirmed to be off-target editing site of significance via amplicon sequencing. The workflow for the OT-1 amplicon sequencing assay is very similar to the on-target sequencing assay but involves one less PCR step. A small 166 base pair sequence encompassing the OT-1 editing site is amplified directly from genomic DNA in the first PCR and then tagged with barcode and adapter sequences in a second PCR. The resulting PCR products are sized, quantified, and prepared for sequencing in the same manner as for the HBB on-target sequencing assay. The sequencing data is also processed using the Crispresso2 pipeline,^3 but in contrast to the on-target sequencing assay no homology direct repair outcomes are present at OT-1, only % WT and % INDELs are reported.
# [4] = tested on: HDR-mediated integration of a donor sequence; experiment: i53 as protein-based additive, enhancement of HDR-mediated integration of a donor sequence (data not shown); type: cell-based; conditions: 1.5 mg/mL purified i53 in nucleofection solution, relatively inconsistent results
# 53BP1 Tudor domain = 53BP1 Tudor domain (Homo sapiens, UniProt Q12888); conditions: previously reported; mutants relative to i53; cited from earlier work
# 53BP1 = 53BP1 (Homo sapiens, UniProt Q12888); conditions: transiently expressed in cells; cited from earlier work
# Sequence of 53BP1 (Q12888 whole entry): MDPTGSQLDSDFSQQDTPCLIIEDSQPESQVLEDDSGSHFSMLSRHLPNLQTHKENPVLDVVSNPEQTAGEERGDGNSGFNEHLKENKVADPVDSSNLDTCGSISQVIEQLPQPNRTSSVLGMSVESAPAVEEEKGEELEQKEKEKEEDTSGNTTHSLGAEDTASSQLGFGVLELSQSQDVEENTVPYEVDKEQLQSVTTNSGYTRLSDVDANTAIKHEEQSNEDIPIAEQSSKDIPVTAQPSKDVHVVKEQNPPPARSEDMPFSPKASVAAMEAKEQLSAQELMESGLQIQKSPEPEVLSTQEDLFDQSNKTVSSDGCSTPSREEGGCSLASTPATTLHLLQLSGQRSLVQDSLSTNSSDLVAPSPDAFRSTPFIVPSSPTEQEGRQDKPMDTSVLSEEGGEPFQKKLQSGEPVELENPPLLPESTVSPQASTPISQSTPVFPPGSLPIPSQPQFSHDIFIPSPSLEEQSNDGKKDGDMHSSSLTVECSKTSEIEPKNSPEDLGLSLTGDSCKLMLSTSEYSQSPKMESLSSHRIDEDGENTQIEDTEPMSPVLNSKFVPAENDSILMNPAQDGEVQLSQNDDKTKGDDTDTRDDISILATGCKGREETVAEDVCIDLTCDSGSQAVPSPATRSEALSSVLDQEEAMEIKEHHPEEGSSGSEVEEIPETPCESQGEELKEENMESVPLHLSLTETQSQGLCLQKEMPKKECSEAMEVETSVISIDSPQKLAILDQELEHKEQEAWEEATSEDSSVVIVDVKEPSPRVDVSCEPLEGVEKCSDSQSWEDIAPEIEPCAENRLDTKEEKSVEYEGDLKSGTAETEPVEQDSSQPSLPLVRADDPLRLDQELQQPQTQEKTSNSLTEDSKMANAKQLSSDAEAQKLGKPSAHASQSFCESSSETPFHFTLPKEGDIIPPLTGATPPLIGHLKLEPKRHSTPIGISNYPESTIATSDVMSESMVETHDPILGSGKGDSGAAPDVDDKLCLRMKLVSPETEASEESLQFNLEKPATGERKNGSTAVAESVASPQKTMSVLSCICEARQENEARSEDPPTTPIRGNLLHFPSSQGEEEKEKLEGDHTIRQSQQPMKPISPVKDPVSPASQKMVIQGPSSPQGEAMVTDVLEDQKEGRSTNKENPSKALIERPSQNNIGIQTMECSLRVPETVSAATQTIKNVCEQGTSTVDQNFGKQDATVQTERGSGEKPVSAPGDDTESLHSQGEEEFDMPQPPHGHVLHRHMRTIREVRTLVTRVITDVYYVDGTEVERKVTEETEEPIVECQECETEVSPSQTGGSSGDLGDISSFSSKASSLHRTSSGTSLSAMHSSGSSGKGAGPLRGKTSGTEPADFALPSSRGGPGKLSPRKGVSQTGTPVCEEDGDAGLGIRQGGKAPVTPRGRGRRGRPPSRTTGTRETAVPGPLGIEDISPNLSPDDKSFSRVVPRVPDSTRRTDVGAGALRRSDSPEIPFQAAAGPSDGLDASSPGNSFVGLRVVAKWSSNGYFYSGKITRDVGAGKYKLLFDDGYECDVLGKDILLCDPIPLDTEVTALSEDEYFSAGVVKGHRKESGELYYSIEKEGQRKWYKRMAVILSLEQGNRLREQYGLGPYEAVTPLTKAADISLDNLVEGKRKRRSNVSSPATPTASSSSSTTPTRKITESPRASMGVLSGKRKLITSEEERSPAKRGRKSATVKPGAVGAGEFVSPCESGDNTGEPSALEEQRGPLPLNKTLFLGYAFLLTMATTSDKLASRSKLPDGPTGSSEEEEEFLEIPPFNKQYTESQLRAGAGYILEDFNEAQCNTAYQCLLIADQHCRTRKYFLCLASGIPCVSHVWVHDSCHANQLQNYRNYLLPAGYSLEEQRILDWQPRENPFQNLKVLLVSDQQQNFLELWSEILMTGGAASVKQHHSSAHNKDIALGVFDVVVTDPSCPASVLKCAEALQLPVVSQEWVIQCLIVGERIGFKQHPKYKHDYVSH
# Sequence of 53BP1 Tudor domain (Q12888 1484-1603 limits assumed): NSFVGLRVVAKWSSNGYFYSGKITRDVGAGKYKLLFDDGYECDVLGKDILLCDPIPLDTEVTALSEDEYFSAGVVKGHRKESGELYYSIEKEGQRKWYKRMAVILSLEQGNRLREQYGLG
substance,measurement,setting,value
"i53: engineered ubiquitin variant, known inhibitor of 53BP1, selectively binds the Tudor domain of 53BP1 [reference compound]",increase of % HDR over DM,"CD34+ HSPCs [1]; HBB-UBC-GFP AAV MOI 1250, protein 0.4 mg/mL, GFP integration in live cells, L67R/L67H value is the average of both",19%
same,increase in levels of GFP integration over control edited cells,CD34+ HSPCs [1]; protein 0.1 mg/mL,5%
same,increase in levels of GFP integration over control edited cells,CD34+ HSPCs [1]; protein 0.2 mg/mL,18%
same,increase in levels of GFP integration over control edited cells,CD34+ HSPCs [1]; protein 0.4 mg/mL,29%
same,increase in levels of GFP integration over control edited cells,CD34+ HSPCs [1]; protein 0.8 mg/mL,45%
same,increase in levels of HDR corrected alleles over control edited cells,"CD34+ HSPCs [2]; MOI 312.5, protein 0.1 mg/mL",18%
same,increase in levels of HDR corrected alleles over control edited cells,"CD34+ HSPCs [2]; MOI 312.5, protein 0.2 mg/mL",24%
same,increase in levels of HDR corrected alleles over control edited cells,"CD34+ HSPCs [2]; MOI 312.5, protein 0.4 mg/mL",45%
same,increase in levels of HDR corrected alleles over control edited cells,"CD34+ HSPCs [2]; MOI 2500, protein 0.1 mg/mL",3%
same,increase in levels of HDR corrected alleles over control edited cells,"CD34+ HSPCs [2]; MOI 2500, protein 0.2 mg/mL",5%
same,increase in levels of HDR corrected alleles over control edited cells,"CD34+ HSPCs [2]; MOI 2500, protein 0.4 mg/mL",18%
same,"levels of HDR corrected alleles (normalized by total edited alleles), dose response","CD34+ HSPCs [2]; FIG. 26, protein 0.2, 0.4 and 0.8 mg/mL, MOIs 312.5 and 2500",decrease significantly as the protein concentrations decreased
same,increase in levels of HDR corrected alleles over DM,"CD34+ HSPCs [2]; HBB-SNP AAV MOI 312.5, protein 0.4 mg/mL",14%
same,increase in levels of HDR corrected alleles over DM,"CD34+ HSPCs [2]; HBB-SNP AAV MOI 2500, protein 0.4 mg/mL",15%
same,frequency of INDELS at the off-target editing site OT-1,CD34+ HSPCs [3],not significantly increase
same,increases in HDR-mediated integration of a donor sequence,[4],10-20%
same,binding to the 53BP1 Tudor domain,53BP1 Tudor domain,selectively bind
same,recruitment of 53BP1 to DSBs,53BP1,block recruitment of 53BP1 to DSBs
